Reference: patent publication US7632814B2, “HYD1 peptides as anti-cancer agents” (University of South Florida, priority 2006, dated 2009)
Where no end group is shown, it is not given here. [ ]: non-standard residue; d: D form.

What was measured:
Format in all cases: cell-based
[1] = system: H929 cells; assay: Lysosensor staining of acidic vesicles, confocal microscopy; details: 100 μg/ml, six hours, compared to control cells
Protocol: (§1) Lysosensor green was used to detect acidic compartments and live cell imaging was performed by confocal microscopy. Shown is a representative figure. The experiment was repeated three independent times and similar results were obtained.
(§2) Lysosensor staining. 35 mm glass bottom microwell dishes were incubated with 10 ul Cell-tak (BD biosciences San Jose, Calif.) and 290 ul 0.5M sodium bicarbonate (Sigma) for 30 minutes. The plates were aspirated and 200,000H929 or 8226 cells were plated. Cells were then treated with either water (VC), 100 μg/ml HYD1 or 100 μg/ml HYD1S for 6 hours. After the 6-hour incubation, the plates were aspirated and washed once with warm media. Media containing 1 μM lysosensor DND-189 (Molecular Probes, Carlsbad Calif.) and 20 μM Hoechst 33342 (Molecular Probes) was added and samples were incubated for an additional 30 minutes. Samples were analyzed with a Leica DMI6000 inverted TCS SP5 confocal scanner (Leica Microsystems, Germany). 405 Diode and Argon laser lines were applied to excite the samples and tunable filters were used to minimize the crosstalk between fluorochromes. Gain, offset, and pinhole setting were identical for all samples within the treatment group. Image sections at […] were captured with photomultiplier detectors and maximum projections were prepared with the LAS AF software version 1.6.0 build 1016 (Leica Microsystems, Germany).

[2] = system: 8226 cells; assay: as above; details: 100 μg/ml, six hours, compared to control cells
Protocol: as §1, §2

[3] = system: 8226 cells; assay: Cell adhesion to fibronectin (crystal violet staining); details: varying concentrations, 30 minutes pre-incubation, 2 hours adhesion
Protocol: FIGS. 30A and 30B are graphs showing that HYD1 but not the scrambled derivative HYD1S inhibited cell adhesion of both 8226 and H929 cells to FN. Varying concentrations of either HYD1, HYD1S, or a 1:100 dilution of either α4β1 or α5β1 integrin functional blocking antibodies was added to either (FIG. 30A) 8226 cell or (FIG. 30B) H929 cells for 30 minutes prior to adding cells to either FN or BSA coated wells. Cells were allowed to adhere for 2 hours and adherent cells were measured by crystal violet staining at 540 nm. Shown is the mean and standard deviation of a representative experiment performed in quadruplicate. Three independent experiments were performed and similar results were obtained.
Quantification of cell adhesion to fibronectin. […] Cell adhesion was detected by crystal violet staining as previously described (Damiano J S et al. Blood, 1999; 93:1658-1667; Hazlehurst L A et al. Oncogene, 2000; 19:4319-4327).
Briefly, 8226 myeloma cells were pre-incubated with varying concentrations of either HYD1 or the scrambled HYD1S peptide for 30 minutes prior to allowing cells to attach to FN for two hours. Following two hours of cell adhesion, the amount of cells adherent to FN was measured. […] Twenty-four hours after drug treatment, apoptosis was measured by Annexin V-PE positive events by FACS analysis. […]

[4] = system: phospho Pyk2 in H929 cells; assay: Phospho-Pyk2 levels in suspension culture (immunoblot); details: H929 cells cultured in suspension
Excerpt: Based upon the observation that HYD1 increased melphalan induced apoptosis in suspension cultures, whether treatment with HYD1 inhibits phosphorylation of a downstream mediator of β1 integrin signaling (Pyk2) in suspension cultures was investigated.

[5] = system: caspase 3; assay: Caspase 3 activity in H929 cells (fluorescent substrate); details: 6 and 24 hrs, relative to treatment with melphalan
Protocol: Cells were treated for 6 hours (FIG. 21A) or 24 hours (FIG. 21B) and caspase 3 activity was measured using a fluorescent substrate. Shown is a representative experiment performed in triplicate. The experiment was repeated twice and similar results were obtained.
Detection of Apoptosis. A flow cytometric assay measuring Annexin V/PI staining was used to measure apoptotic cells following 24 hours of peptide exposure as previously described (Damiano J S et al. Blood, 1999; 93:1658-1667). The assay was performed in triplicate and 3 independent experiments were performed. Caspase 3 and 8 activity was measured at 6 and 24 hrs post peptide treatment per manufactures' instructions (BD Biosciences, San Jose, Calif.). The caspase assays were performed in triplicate and repeated twice.

[6] = system: ERK; assay: Activation of ERK signaling
Protocol: HYD1, when introduced as a soluble ligand, completely blocks random hapotaxis on laminin 322 and enhanced cellular signals are coupled with the loss of cell motility. […] Using this endpoint as an indicator of HYD1 bioactivity, the truncated and alanine-substituted variants of HYD1 were tested for their ability to activate ERK. Activation of ERK at 10 minutes post-treatment was conserved with alanine-substitution only at the N-terminal lysine and C-terminal glycine (FIG. 16A-1). […] Taken together (FIG. 16C-2), the results (FIGS. 16A-1, 16A-2, 16B, 16C-1) indicate that activation of ERK signaling required ikmviswxx (SEQ ID NO:48).

“kikmviswkg ([dK][dI][dK][dM][dV][dI][dS][dW][dK]G) [HYD1]” was tested, and the “number and size of acidic vesicles” value [1] was “increase in the number and size of acidic vesicles”, the “number and size of acidic vesicles” value [2] was “increase in the number and size of acidic vesicles” and the “blocking of adhesion of 8226 cells to the extracellular matrix FN” value [3] was “blocks adhesion of 8226 and H929 cells to the extracellular matrix FN in a dose dependent manner”. The “phospho Pyk2 levels” value [4] was “reduces phospho Pyk2 levels”, the “caspase 3 activity” value [5] was “minimal caspase 3 activity” and the “time of maximal activation of ERK post-treatment” value [6] was 10 min. The “activation of ERK” value ([6]; 10 minutes post-treatment) was “induces activation of ERK”.
